Source: ChEMBL document CHEMBL5329197, “Harvesting phosphorus-containing moieties for their antibacterial effects” (Bioorg Med Chem, 2023)
In brackets after ≈: the same amount, converted by molar mass.

Assays:
[1] = Binding affinity to D-Ala-D-Ala assessed as dissociation constant
Neisseria gonorrhoeae = assay: Antibacterial activity against Neisseria gonorrhoeae ATCC 49226 assessed as reduction in bacterial growth; assay type: functional
Staphylococcus aureus [2] = assay: Antibacterial activity against methicillin-Staphylococcus aureus ATCC 43300 assessed as reduction in bacterial growth measured after 24 hrs by broth microdilution method; assay type: functional
[3] = Inhibition of Bordetella pertussis Adenylate cyclase toxin
Acinetobacter baumannii [4] = assay: Antibacterial activity against Acinetobacter baumannii assessed as reduction in bacterial growth by Mueller-Hinton broth microdilution method; assay type: functional, organism-based
Staphylococcus aureus [5] = assay: Antibacterial activity against methicillin-resistant Staphylococcus aureus assessed as reduction in bacterial cell growth incubated for 24 hrs by broth microdilution method; assay type: functional
[6] = Binding affinity to Escherichia coli ThiM TPP riboswitch assessed as dissociation constant
[7] = Inhibition of GIM1 (unknown origin)
Bacillus subtilis [8] = assay: Antibacterial activity against Bacillus subtilis ATCC 6633 assessed as reduction in microbial growth after 24 hrs by two-fold serial dilution method; assay type: functional
Escherichia coli [9] = assay: Antibacterial activity against Escherichia coli JW 1772 assessed as reduction in microbial growth after 24 hrs by two-fold serial dilution method; assay type: functional
Nakaseomyces glabratus = assay: Antifungal activity against Candida glabrata ATCC 15126 assessed as reduction in fungal growth incubated for 24 hrs by CLSI based analysis; assay type: functional
Escherichia coli [10] = assay: Antibacterial activity against Escherichia coli assessed as minimum bactericidal concentration incubated for 24 hrs; assay type: functional
Salmonella typhimurium = assay: Antibacterial activity against Salmonella typhimurium DT104 ATCC 14028 assessed as reduction in microbial growth measured after 24 hrs by CLSI-based method; assay type: functional, Salmonella enterica subsp. enterica serovar Typhimurium; settings: Salmonella enterica
Staphylococcus aureus [11] = assay: Antibacterial activity against Staphylococcus aureus ATCC 25923 assessed as reduction in microbial growth after 24 hrs by two-fold serial dilution method; assay type: functional
Bacillus subtilis [12] = assay: Antibacterial activity against Bacillus subtilis ATCC 6633 assessed as minimum bactericidal concentration incubated for 24 hrs; assay type: functional
Candida albicans [13] = assay: Antifungal activity against Candida albicans ATCC 28367 assessed as reduction in fungal growth incubated for 24 hrs by CLSI based analysis; assay type: functional
Staphylococcus aureus [14] = assay: Bactericidal activity against Staphylococcus aureus ATCC 25923 assessed as reduction in bacterial cell growth incubated for 24 hrs by CLSI-based analysis; assay type: functional
Pseudomonas aeruginosa [15] = assay: Antibacterial activity against Pseudomonas aeruginosa assessed as reduction in bacterial growth; assay type: functional
Escherichia coli [16] = assay: Antibacterial activity against Escherichia coli assessed as reduction in bacterial growth; assay type: functional
Bacillus subtilis [17] = assay: Antibacterial activity against Bacillus subtilis assessed as reduction in bacterial growth; assay type: functional
Enterococcus durans = assay: Antibacterial activity against Enterococcus durans assessed as reduction in bacterial growth; assay type: functional
Plasmodium falciparum = assay: Antiplasmodial activity against Plasmodium falciparum assessed as parasitic growth inhibition; assay type: functional, organism-based
Enterococcus faecium = assay: Antibacterial activity against Enterococcus faecium assessed as bacterial growth inhibition; assay type: functional
Klebsiella pneumoniae [18] = assay: Antibacterial activity against carbapenem resistance Klebsiella pneumoniae ATCC BAA-1705 assessed as inhibition of microbial growth measured after 24 hrs by microplate reader analysis; assay type: functional
Enterococcus faecalis [19] = assay: Antibacterial activity against Enterococcus faecalis assessed as bacterial growth inhibition; assay type: functional
Escherichia coli [20] = assay: Antibacterial activity against Escherichia coli ATCC 8730 assessed as reduction in bacterial cell growth measured after 24 hrs by microplate reader based analysis; assay type: functional
Staphylococcus aureus [21] = assay: Antibacterial activity against methicillin-resistant Staphylococcus aureus assessed as inhibition of cell growth; assay type: functional
Escherichia coli [22] = assay: Antibacterial activity against Escherichia coli assessed as reduction in bacterial growth measured after 24 hrs by CLSI-based Mueller-Hinton broth dilution method; assay type: functional
Enterococcus faecalis [23] = assay: Antibacterial activity against Enterococcus faecalis assessed as inhibition of bacterial growth measured after 24 hrs by CLSI-based microdilution method; assay type: functional
Klebsiella pneumoniae [24] = assay: Antibacterial activity against Klebsiella pneumonia assessed as inhibition of bacterial growth measured after 24 hrs by CLSI-based microdilution method; assay type: functional
Pseudomonas aeruginosa [25] = assay: Antibacterial activity against Pseudomonas aeruginosa assessed as inhibition of bacterial growth measured after 24 hrs by CLSI-based microdilution method; assay type: functional
Staphylococcus aureus [26] = assay: Antibacterial activity against Staphylococcus aureus assessed as inhibition of bacterial growth measured after 24 hrs by CLSI-based microdilution method; assay type: functional
Acinetobacter baumannii [27] = assay: Antibacterial activity against Acinetobacter baumannii assessed as reduction in bacterial growth measured after 24 hrs by Mueller-Hinton broth dilution method; assay type: functional
[28] = Binding affinity to Sporosarcina pasteurii Urease assessed as inhibition constant
Escherichia coli [29] = assay: Antibacterial activity against Escherichia coli assessed as zone of inhibition; assay type: functional
Klebsiella aerogenes = assay: Antibacterial activity against Enterobacter aerogenes assessed as zone of inhibition; assay type: functional
Carbonic anhydrase 2 [30] = biological target: T1, Carbonic anhydrase 2 (Homo sapiens, UniProt P00918); assay: Binding affinity to human CA2 in U2OS cells assessed as inhibition constant; assay type: cell-based
Carbonic anhydrase 2 [31] = biological target: T1, Carbonic anhydrase 2; assay: Binding affinity to CA2 (unknown origin) assessed as inhibition constant
Bacillus cereus = assay: Antibacterial activity against Bacillus cereus assessed as reduction in microbial growth measured after 24 hrs by Mueller-Hinton broth based two-fold serial dilution method; assay type: functional
Acinetobacter baumannii [32] = assay: Antibacterial activity against Acinetobacter baumannii assessed as reduction in microbial growth measured after 24 hrs by Mueller-Hinton broth based two-fold serial dilution method; assay type: functional
Candida albicans [33] = assay: Antibacterial activity against Candida albicans assessed as reduction in microbial growth measured after 24 hrs by Mueller-Hinton broth based two-fold serial dilution method; assay type: functional
Staphylococcus aureus [34] = assay: Antibacterial activity against Staphylococcus aureus ATCC 25900 assessed as reduction in microbial growth measured after 24 hrs by Mueller-Hinton broth based two-fold serial dilution method; assay type: functional
Escherichia coli [35] = assay: Antibacterial activity against Escherichia coli ATCC 25922 assessed as reduction in microbial growth measured after 24 hrs by Mueller-Hinton broth based two-fold serial dilution method; assay type: functional
Pseudomonas aeruginosa [36] = assay: Antibacterial activity against Pseudomonas aeruginosa ATCC 27853 assessed as reduction in microbial growth measured after 24 hrs by Mueller-Hinton broth based two-fold serial dilution method; assay type: functional
[37] = Inhibition of Bordetella pertussis Adenylate cyclase toxin in mouse J774.A1 cells; assay type: cell-based
Staphylococcus aureus [38] = assay: Antibacterial activity against methicillin-susceptible Staphylococcus aureus assessed as reduction in bacterial cell growth; assay type: functional

Question: With `CCC(CP(=O)(O)C(C)N)C(=O)O` (stereo not drawn) as the compound, how does the Ki [1] read?
Answer: 90 nM

Question: For `C=C(C/C=C(\C)CCC=C(C)C)CCC(C)(C)/C=C/CC/C(C)=C\CO[C@H](COP(=O)(O)O[C@H]1O[C@H](C(N)=O)[C@@](C)(O)[C@H](OC(N)=O)[C@H]1O[C@@H]1O[C@H](CO[C@@H]2O[C@H](CO)[C@@H](O)[C@H](O)[C@H]2O)[C@@H](O[C@@H]2O[C@H](C)[C@@H](O[C@@H]3O[C@H](C(=O)NC4=C(O)CCC4=O)[C@H](O)[C@H](O)[C@H]3O)[C@H](O)[C@H]2NC(C)=O)[C@H](O)[C@H]1NC(C)=O)C(=O)O`, which MIC (Neisseria gonorrhoeae) is on record?
Answer: 0.004 µg/mL (≈ 0.00253 µM)

Question: Which MIC (Staphylococcus aureus [2]) does the source give for `CS(=O)(=O)[O-].O=C(CCc1ccc(O)c(O)c1)NCCCCCCCCCC[P+](c1ccccc1)(c1ccccc1)c1ccccc1` here?
Answer: 0.25 µg/mL

Question: With `CC(C)OC(=O)[C@H](Cc1ccccc1)NP(=O)(COCCn1cnc2c(N)nc(F)nc21)N[C@@H](Cc1ccccc1)C(=O)OC(C)C` as the compound, how does the IC50 [3] read?
Answer: 145 nM

Question: For `CCCCCCCCCC[P+](CCCCCC[P+](CCCCCCCCCC)(c1ccccc1)c1ccccc1)(c1ccccc1)c1ccccc1`, which IC50 (Acinetobacter baumannii [4]) is on record?
Answer: 3000 nM

Question: For `CCCCCC[P+](/C=C(\c1ccccc1)c1cc(Cl)ccc1O)(c1ccccc1OC)c1ccccc1OC`, which MIC (Staphylococcus aureus [5]) is on record?
Answer: < 1 µM

Question: Which Kd [6] does the source give for `Cc1ncc(C[n+]2csc(CCOP(=O)(O)CP(=O)(O)O)c2C)c(N)n1` here?
Answer: 20 nM

Question: With `COP(=O)(CCSC(C)=O)NCc1ccccn1` (stereo not drawn) as the compound, how does the IC50 [7] read?
Answer: 86000 nM

Question: Which results are given for `O=P(c1ccccc1)(c1ccccc1)C1CCC/C1=N\O` (stereo not drawn)?
Answer: MIC (Bacillus subtilis [8]): 0.1 µg/mL; MIC (Escherichia coli [9]): 0.1 µg/mL; MIC (Nakaseomyces glabratus): 0.1 µg/mL (≈ 0.334 µM); MBC (Escherichia coli [10]): 2 µg/mL (≈ 6.68 µM); MIC (Salmonella typhimurium): 0.1 µg/mL; MIC (Staphylococcus aureus [11]): 0.1 µg/mL; MBC (Bacillus subtilis [12]): 2 µg/mL (≈ 6.68 µM); MIC (Candida albicans [13]): 0.1 µg/mL (≈ 0.334 µM); MBC (Staphylococcus aureus [14]): 2 µg/mL (≈ 6.68 µM)

Question: For `Cn1nccc1CP(=O)(Cc1ccnn1C)Cc1ccnn1C`, which MIC (Pseudomonas aeruginosa [15]) is on record?
Answer: 0.15 µg/mL (≈ 0.451 µM)

Question: And the MIC (Escherichia coli [16])?
Answer: 0.15 µg/mL (≈ 0.451 µM)

Question: What about the MIC (Bacillus subtilis [17]) of the same compound?
Answer: 0.15 µg/mL (≈ 0.451 µM)

Question: And the MIC (Enterococcus durans)?
Answer: 0.15 µg/mL (≈ 0.451 µM)

Question: For `CCCCCCCC(=O)OCOP(=O)(CCCC(=O)N(C)O)OCOC(=O)CCCCCCC`, which IC50 (Plasmodium falciparum) is on record?
Answer: 50 nM

Question: For `C[C@H](N)C(=O)N[C@@H](C)C(=O)N[C@@H](C)P(=O)(O)O`, which MIC90 (Enterococcus faecium) is on record?
Answer: 2 µg/mL (≈ 7.48 µM)

Question: What about the MIC90 (Klebsiella pneumoniae [18]) of the same compound?
Answer: 4 µg/mL

Question: What about the MIC90 (Enterococcus faecalis [19]) of the same compound?
Answer: 0.5 µg/mL (≈ 1.87 µM)

Question: What about the MIC90 (Escherichia coli [20]) of the same compound?
Answer: 0.25 µg/mL (≈ 0.936 µM)

Question: And the MIC90 (Staphylococcus aureus [21])?
Answer: 8 µg/mL (≈ 29.9 µM)

Question: For `Cc1ncc(Cn2cc(CCOP(=O)(O)CP(=O)(O)O)nn2)c(N)n1`, which Kd [6] is on record?
Answer: 9 nM

Question: What does the source list for `CCCCc1nc(Cl)c(C(Nc2ccc(S(N)(=O)=O)cc2)P(=O)(OCC)OCC)n1Cc1ccc(Cl)cc1` (stereo not drawn)?
Answer: MIC (Escherichia coli [22]): 2 µg/mL (≈ 3.31 µM); MIC (Enterococcus faecalis [23]): 4 µg/mL (≈ 6.63 µM); MIC (Klebsiella pneumoniae [24]): 4 µg/mL (≈ 6.63 µM); MIC (Pseudomonas aeruginosa [25]): 4 µg/mL (≈ 6.63 µM); MIC (Staphylococcus aureus [26]): 4 µg/mL (≈ 6.63 µM)

Question: With `CCCCCCCCCCCC[P+](c1ccccc1)(c1ccccc1)c1ccccc1` as the compound, how does the MIC (Acinetobacter baumannii [27]) read?
Answer: 6.25 µM

Question: For `CN(C)CP(=O)(O)O`, which Ki [28] is on record?
Answer: 13000 nM

Question: With `CCCCCCCC[P+](CCCC)(CCCCCCCC)CCCCCCCC.CS(=O)(=O)[O-]` as the compound, how does the “inhibition zone (IZ)” value (Escherichia coli [29]) read?
Answer: 14 mm

Question: And the “inhibition zone (IZ)” value (Klebsiella aerogenes)?
Answer: 14 mm

Question: With `O/N=C1\CCCC1P(=S)(c1ccccc1)c1ccccc1` (stereo not drawn) as the compound, how does the MIC (Bacillus subtilis [8]) read?
Answer: 0.1 µg/mL

Question: What about the MIC (Escherichia coli [9]) of the same compound?
Answer: 0.1 µg/mL

Question: What about the MIC (Nakaseomyces glabratus) of the same compound?
Answer: 0.1 µg/mL (≈ 0.317 µM)

Question: And the MBC (Escherichia coli [10])?
Answer: 2 µg/mL (≈ 6.34 µM)

Question: What about the MIC (Salmonella typhimurium) of the same compound?
Answer: 0.1 µg/mL

Question: And the MIC (Staphylococcus aureus [11])?
Answer: 0.1 µg/mL

Question: And the MBC (Bacillus subtilis [12])?
Answer: 2 µg/mL (≈ 6.34 µM)

Question: What about the MIC (Candida albicans [13]) of the same compound?
Answer: 0.1 µg/mL (≈ 0.317 µM)

Question: What about the MBC (Staphylococcus aureus [14]) of the same compound?
Answer: 2 µg/mL (≈ 6.34 µM)

Question: Which results are given for `COCCOP(N)(=O)c1ccccc1` (stereo not drawn)?
Answer: Ki (Carbonic anhydrase 2 [30]): 32800 nM; Ki (Carbonic anhydrase 2 [31]): 20 nM

Question: Which MIC (Bacillus cereus) does the source give for `CCOP(=O)(OCC)C(Nc1ncc(-c2cc3ccccc3oc2=O)s1)c1ccccc1Br` (stereo not drawn) here?
Answer: 0.125 µg/mL

Question: And the MIC (Acinetobacter baumannii [32])?
Answer: 0.125 µg/mL

Question: What about the MIC (Candida albicans [33]) of the same compound?
Answer: 0.125 µg/mL

Question: And the MIC (Staphylococcus aureus [34])?
Answer: 0.125 µg/mL

Question: And the MIC (Escherichia coli [35])?
Answer: 0.125 µg/mL

Question: And the MIC (Pseudomonas aeruginosa [36])?
Answer: 0.125 µg/mL

Question: Which Ki [28] does the source give for `CN(C)CP(C)(=O)O` [(DIMETHYLAMINO)METHYL(METHYL)PHOSPHINIC ACID] here?
Answer: 620 nM

Question: For `Nc1ncnc2c1ncn2CCOCP(=O)(O)OP(=O)(O)OP(=O)(O)O` [ADEFOVIR DIPHOSPHATE], which IC50 [37] is on record?
Answer: 150 nM

Question: What about the IC50 [3] of the same compound?
Answer: 18 nM

Question: With `CCCCCCCCCC[P+](C)(C)CCCCCCCCCC.[Cl-]` [DIDECYLDIMETHYLPHOSPHONIUM CHLORIDE] as the compound, how does the MIC (Staphylococcus aureus [38]) read?
Answer: 0.78 µg/mL
